In general, pIC50 refers to −log10 of the IC50, conventionally taken in molar units.

These results are taken from US11697646B2, “Triazole N-linked carbamoyl cyclohexyl acids as LPA antagonists” (BRISTOL-MYERS SQUIBB COMPANY, priority 2017, dated 2023).

pIC50: −log10 of the molar value. Structures can show the parent of a compound that is named as a salt.

In one assay the target is T1, human LPA1 (Homo sapiens, UniProt Q92633).
T1 construct: expressed in transfected cells; host or cells: Chinese hamster ovary (CHO) cells
T1 sequence (Q92633 whole entry): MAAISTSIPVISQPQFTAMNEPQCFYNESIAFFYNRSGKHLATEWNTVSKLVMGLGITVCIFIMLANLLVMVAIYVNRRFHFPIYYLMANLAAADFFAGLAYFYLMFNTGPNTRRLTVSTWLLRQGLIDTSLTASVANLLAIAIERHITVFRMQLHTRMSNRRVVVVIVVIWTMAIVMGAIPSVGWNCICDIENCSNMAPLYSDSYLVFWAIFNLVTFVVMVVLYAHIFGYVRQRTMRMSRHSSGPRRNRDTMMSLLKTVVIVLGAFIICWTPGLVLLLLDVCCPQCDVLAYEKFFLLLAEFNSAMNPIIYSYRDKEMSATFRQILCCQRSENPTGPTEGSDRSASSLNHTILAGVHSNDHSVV
Kind of assay: LPA1 functional antagonist assay (calcium flux). The class given is cell-based. Conditions: CHO cells overexpressing human LPA1; calcium flux induced by 10 nM LPA; read-out: hLPA1 IC50. On the procedure:
The effectiveness of compounds of the present invention as LPA1 inhibitors can be determined in an LPA1 functional antagonist assay as follows:
The cells were then equilibrated to room temperature for 30 minutes before the assay. […] IC50 values were determined by fitting data to a 4-parameter logistic equation (GraphPad Prism, San Diego Calif.).
(A change in cytosolic calcium serves as a functional read-out for many receptors and channels.)
With `Cc1nc(-c2nnn(C)c2CNC(=O)OC[C@@H]2CC2(F)F)ccc1O[C@H]1CCC[C@H](C(=O)O)C1` [Example 208, (1S,3S)-3-((6-(5-((((((S)-2,2-difluorocyclopropyl)methoxy)carbonyl)amino)methyl)-1-methyl-1H-1,2,3-triazol-4-yl)-2-methylpyridin-3-yl)oxy)cyclohexane-1-carboxylate diethylammonium salt], the negative-log IC50 (pIC50) is 7.24.

On to `Cn1nnc(-c2ccc(O[C@H]3CCC[C@H](C(=O)O)C3)c(C(F)(F)F)n2)c1CNC(=O)OCCCCF` [Example 97, (1S,3S)-3-((6-(5-((((4-fluorobutoxy)carbonyl)amino)methyl)-1-methyl-1H-1,2,3-triazol-4-yl)-2-(trifluoro-methyl)pyridin-3-yl)oxy)cyclohexane-1-carboxylic acid], for which the negative logarithm of the IC50 (pIC50) was 7.60.

With `Cc1nc(-c2nnn(C)c2NC(=O)OC2CC3(CC3)C2)ccc1O[C@H]1CCC[C@H](C(=O)O)C1` [Example 225, (1S,3S)-3-((2-methyl-6-(1-methyl-5-(((spiro[2.3]hexan-5-yloxy)carbonyl)amino)-1H-1,2,3-triazol-4-yl)pyridin-3-yl)oxy)cyclohexane-1-carboxylic acid], the pIC50 is 6.74.

With `Cc1nc(-c2nnn(C)c2CNC(=O)NCC(C)C)ccc1O[C@H]1CCC[C@H](C(=O)O)C1` [Example 127, (1S,3S)-3-((6-(5-((3-isobutylureido)methyl)-1-methyl-1H-1,2,3-triazol-4-yl)-2-methylpyridin-3-yl)oxy)cyclohexane-1-carboxylic acid], the pIC50 is 5.64.

Turning to `CCCCCOC(=O)Nc1c(-c2ccc(O[C@H]3CCC[C@H](C(=O)O)C3)cn2)nnn1C` [Example 88], the pIC50 is 7.47.

On to `Cn1nnc(-c2ccc(O[C@H]3CCC[C@H](C(=O)O)C3)cn2)c1NC(=O)OCC1CC1` [Example 83, (1S,3S)-3-((6-(5-(((cyclopropyl-methoxy)carbonyl)amino)-1-methyl-1H-1,2,3-triazol-4-yl)pyridin-3-yl)oxy)cyclohexane-1-carboxylic acid], for which the pIC50 was 6.75.

For the compound `CCCCC(=O)NCc1c(-c2ccc(O[C@H]3CCC[C@H](C(=O)O)C3)c(C)n2)nnn1C` [Example 237, (1S,3S)-3-((2-methyl-6-(1-methyl-5-(pentanamidomethyl)-1H-1,2,3-triazol-4-yl)pyridin-3-yl)oxy)cyclo-hexanecarboxylic acid], the pIC50 was 6.11.

For `Cc1nc(-c2nnn(C)c2NC(=O)OC(C)C)ccc1O[C@H]1CCC[C@H](C(=O)O)C1` [Example 70, (1S,3S)-3-((6-(5-((isopropoxycarbonyl)amino)-1-methyl-1H-1,2,3-triazol-4-yl)-2-methylpyridin-3-yl)oxy)cyclohexane-1-carboxylic acid], the pIC50 was 6.89.

As to `Cn1nnc(-c2ccc(O[C@H]3CCC[C@H](C(=O)O)C3)cn2)c1CNC(=O)CC1CCCC1` [Example 236, (1S,3S)-3-((6-(5-((2-cyclopentylacetamido)methyl)-1-methyl-1H-1,2,3-triazol-4-yl)pyridin-3-yl)oxy)cyclohexanecarboxylic acid], the pIC50 was 6.24.

As to `CCc1nc(-c2nnn(C)c2NC(=O)OCC2CC2)ccc1O[C@H]1CCC[C@H](C(=O)O)C1` [Example 231, (1S,3S)-3-{[6-(5-{[(cyclopropyl-methoxy)carbonyl}amino}-1-methyl-1H-1,2,3-triazol-4-yl)-2-ethylpyridin-3-yl]oxy}cyclohexane-1-carboxylic acid], the pIC50 was 7.55.

Take `Cn1nnc(-c2ccc(O[C@H]3CCC[C@H](C(=O)O)C3)cn2)c1CNC(=O)OCC1CC(F)C1` (mixture of isomers) [Example 47, (1S,3S)-3-((6-(5-(((((3-fluorocyclobutyl)methoxy)carbonyl)amino)methyl)-1-methyl-1H-1,2,3-triazol-4-yl)pyridin-3-yl)oxy)cyclohexane-1-carboxylic acid]: the pIC50 was 6.07.

For the compound `CCCCCOC(=O)NCc1c(-c2ccc(O[C@H]3CCC[C@H](C(=O)O)C3)c(C)n2)nnn1C` [Example 23], the pIC50 is 8.52.

In the case of `Cc1nc(-c2nnn(C)c2CNS(=O)(=O)N(C)Cc2ccccc2)ccc1O[C@H]1CCC[C@H](C(=O)O)C1` [Example 139, (1S,3S)-3-((6-(5-(((N-benzyl-N-methylsulfamoyl)amino)methyl)-1-methyl-1H-1,2,3-triazol-4-yl)-2-methylpyridin-3-yl)oxy)cyclohexane-1-carboxylic acid], the pIC50 was 6.50.

In the case of `CCc1nc(-c2nnn(C)c2NC(=O)OCC(C)C)ccc1O[C@H]1CCC[C@H](C(=O)O)C1` [Example 230, (1S,3S)-3-{[2-ethyl-6-(1-methyl-5-{[(2-methylpropoxy)carbonyl]amino}-1H-1,2,3-triazol-4-yl)pyridin-3-yl]oxy}cyclohexane-1-carboxylic acid], the pIC50 was 7.77.

As to `Cc1nc(-c2nnn(C)c2NC(=O)OCC(C)F)ccc1O[C@H]1CCC[C@H](C(=O)O)C1` (stereo partly drawn) [Example 143, (1S,3S)-3-((6-(5-(((2-fluoropropoxy)carbonyl)amino)-1-methyl-1H-1,2,3-triazol-4-yl)-2-methylpyridin-3-yl)oxy)cyclohexane-1-carboxylic acid], the pIC50 is 6.32.

As to `CCCCCN(C)C(=O)NCc1c(-c2ccc(O[C@H]3CCC[C@H](C(=O)O)C3)c(C)n2)nnn1C` [Example 111, (1S,3S)-3-((2-methyl-6-(1-methyl-5-((3-methyl-3-pentylureido)methyl)-1H-1,2,3-triazol-4-yl)pyridin-3-yl)oxy)cyclohexanecarboxylic acid], the pIC50 is 6.65.

In the case of `Cc1nc(-c2nnn(C)c2CNC(=O)OCc2ccccc2)ccc1O[C@@H]1CCC[C@@](F)(C(=O)O)C1` (single isomer, unassigned) [Example 210], the pIC50 was 8.30.

Turning to `CCCC1(COC(=O)NCc2c(-c3ccc(O[C@H]4CCC[C@H](C(=O)O)C4)cn3)nnn2C)CC1` [Example 50, (1S,3S)-3-((6-(1-methyl-5-(((((1-propylcyclopropyl)methoxy)carbonyl)amino)methyl)-1H-1,2,3-triazol-4-yl)pyridin-3-yl)oxy)cyclohexane-1-carboxylic acid], the pIC50 is 7.55.

For `Cn1nnc(-c2ccc(O[C@H]3CCC[C@H](C(=O)O)C3)c(C(F)F)n2)c1CNC(=O)OCc1ccccc1` [Example 98, (1S,3S)-3-((6-(5-((((benzyloxy)carbonyl)amino)methyl)-1-methyl-1H-1,2,3-triazol-4-yl)-2-(difluoro-methyl)pyridin-3-yl)oxy)cyclohexane-1-carboxylic acid], the pIC50 is 7.48.

For `CCCC(C)NC(=O)Nc1c(-c2ccc(O[C@H]3CCC[C@H](C(=O)O)C3)c(C)n2)nnn1C` (mixture of isomers) [Example 147, (1S,3S)-3-((2-methyl-6-(1-methyl-5-(3-(pentan-2-yl)ureido)-1H-1,2,3-triazol-4-yl)pyridin-3-yl)oxy)cyclo-hexane-1-carboxylic acid], the negative logarithm of the IC50 (pIC50) is 6.29.

As to `Cc1nc(-c2nnn(C)c2CNC(=O)OCc2ccccc2)ccc1O[C@@H]1CCC[C@@](F)(C(=O)O)C1` (single isomer, unassigned) [Example 211], the pIC50 was 6.72.

Regarding `Cc1nc(-c2nnn(C)c2CNS(=O)(=O)NCC2CCCC2)ccc1O[C@H]1CCC[C@H](C(=O)O)C1` [Example 226, (1S,3S)-3-((6-(5-(((N-(cyclopentylmethyl)sulfamoyl)amino)methyl)-1-methyl-1H-1,2,3-triazol-4-yl)-2-methylpyridin-3-yl)oxy)cyclohexane-1-carboxylic acid], the pIC50 was 5.96.

As for `Cc1nc(-c2nnn(C)c2CNS(=O)(=O)N(C)CC2CCCC2)ccc1O[C@H]1CCC[C@H](C(=O)O)C1` [Example 137, (1S,3S)-3-((6-(5-(((N-(cyclopentylmethyl)-N-methylsulfamoyl)amino)methyl)-1-methyl-1H-1,2,3-triazol-4-yl)-2-methylpyridin-3-yl)oxy)cyclohexane-1-carboxylicacid], the pIC50 was 6.78.

The same assay, now with this note: human LPA1 functional antagonist assay; read-out: hLPA1 IC50.
In the case of `Cc1nc(-c2nnn(C)c2CNC(=O)OCC(C)C(F)(F)F)ccc1O[C@H]1CCC[C@H](C(=O)O)C1` (mixture of isomers) [Example 204, (1S,3S)-3((2-methyl-6-(1-methyl-5-((((3,3,3-trifluoro-2-methylpropoxy)carbonyl)amino)methyl)-1H-1,2,3-triazol-4-yl)pyridin-3-yl)oxy)cyclohexane-1-carboxylic acid], the negative logarithm of the IC50 (pIC50) was 7.02.

In the case of `Cc1nc(-c2nnn(C)c2CNC(=O)OCCC(C)(F)F)ccc1O[C@H]1CCC[C@H](C(=O)O)C1` [Example 202, (1S,3S)-3-((6-(5-((((3,3-difluorobutoxy)carbonyl)amino)methyl)-1-methyl-1H-1,2,3-triazol-4-yl)-2-methylpyridin-3-yl)oxy) cyclo-hexane-1-carboxylic acid], the pIC50 was 7.07.

Consider `Cc1nc(-c2nnn(C)c2CNC(=O)OCC(C)CC(F)(F)F)cnc1O[C@H]1CCC[C@H](C(=O)O)C1` (stereo partly drawn) [Example 155, (1S,3S)-3-((3-methyl-5-(1-methyl-5-((((4,4,4-trifluoro-2-methylbutoxy)carbonyl)amino)methyl)-1H-1,2,3-triazol-4-yl)pyrazin-2-yl)oxy)cyclohexane-1-carboxylic acid], for which the pIC50 is 7.07.

As for `Cc1nc(-c2nnn(C)c2CNC(=O)OCC2(CCF)CC2)ccc1O[C@H]1CCC[C@H](C(=O)O)C1` [Example 163, (1S,3S)-3-((6-(5-(((((1-(2-fluoro-ethyl)cyclopropyl)methoxy)carbonyl)amino)methyl)-1-methyl-1H-1,2,3-triazol-4-yl)-2-methylpyridin-3-yl)oxy)cyclohexane-1-carboxylic acid], the pIC50 is 7.06.

Regarding `Cc1nc(-c2nnn(C)c2CNC(=O)O[C@H](C)C(C)C)ccc1O[C@H]1CCC[C@H](C(=O)O)C1` [Example 170, (1S,3S)-3-((2-methyl-6-(1-methyl-5-((((((R)-3-methylbutan-2-yl)oxy)carbonyl)amino)methyl)-1H-1,2,3-triazol-4-yl)pyridin-3-yl)oxy)cyclohexane-1-carboxylic acid], the pIC50 is 7.04.
